Measured values: US20180044304A1, “1,3,4-OXADIAZOLE AND THIADIAZOLE COMPOUNDS AS IMMUNOMODULATORS” (AURIGENE DISCOVERY TECHNOLOGIES LIMITED, priority 2015, published 2018)

Target: T1, Recombinant mouse PD-L1 (Mus musculus, UniProt Q9EP73)
T1 construct: Fc (Fc chimera); purchased R&D Systems 1019-B7-100
Assay: Rescue of mouse splenocyte proliferation in the presence of recombinant PD-L1 (CFSE proliferation assay)
Assay type: cell-based
Conditions: 100 nM compound; anti-CD3/CD28 stimulated C57 BL6 mouse splenocytes with PD-L1; 72 h; stimulated splenocyte proliferation = 100%; read-out: Percent rescue of splenocyte proliferation (@100 nM compound concentration)
Procedure: Rescue of Mouse Splenocyte Proliferation in the Presence of Recombinant PD-L1
Recombinant mouse PD-L1 (rm-PDL-1, cat no: 1019-B7-100; R&D Systems) were used as the source of PD-L1.
Mouse splenocytes harvested from 6-8 weeks old C57 BL6 mice; RPMI 1640 (GIBCO, Cat #11875); DMEM with high glucose (GIBCO, Cat #D6429); Fetal Bovine Serum [Hyclone, Cat #SH30071.03]; Penicillin (10000 unit/mL)-Streptomycin(10,000 μg/mL) Liquid (GIBCO, Cat #15140-122); MEM Sodium Pyruvate solution 100 mM (100×), Liquid (GIBCO, Cat #11360); Nonessential amino acid (GIBCO, Cat #11140); L-Glutamine (GIBCO, Cat #25030); Anti-CD3 antibody (eBiosciences—16-0032); Anti-CD28 antibody (eBiosciences—16-0281); ACK lysis buffer (1 mL) (GIBCO, Cat #-A10492); Histopaque (density-1.083 gm/mL) (SIGMA 10831); Trypan blue solution (SIGMA-T8154); 2 mL Norm Ject Luer Lock syringe-(Sigma 2014-12); 40 μm nylon cell strainer (BD FALCON 35230); Hemacytometer (Bright line-SIGMA Z359629); FACS Buffer (PBS/0.1% BSA): Phosphate Buffered Saline (PBS) pH 7.2 (HiMedia TS1006) with 0.1% Bovine Serum Albumin (BSA) (SIGMA A7050) and sodium azide (SIGMA 08591); 5 mM stock solution of CFSE: CFSE stock solution was prepared by diluting lyophilized CFSE with 180 μl of Dimethyl sulfoxide (DMSO C2H6SO, SIGMA-D-5879) and aliquoted in to tubes for further use. Working concentrations were titrated from 10 μM to 1 μM. (eBioscience-650850-85); 0.05% Trypsin and 0.02% EDTA (SIGMA 59417C); 96-well format ELISA plates (Corning CLS3390); BD FACS caliber (E6016); Recombinant mouse B7-H1/PDL1 Fc Chimera, (rm-PD-L1 cat no: 1019-B7-100).
Splenocytes harvested in a 50 mL falcon tube by mashing mouse spleen in a 40 μm cell strainer were further treated with 1 mL ACK lysis buffer for 5 min at room temperature. After washing with 9 mL of RPMI complete media, cells were re-suspended in 3 mL of 1× PBS in a 15 mL tube. 3 mL of Histopaque was added carefully to the bottom of the tube without disturbing overlaying splenocyte suspension. After centrifuging at 800×g for 20 min at room temperature, the opaque layer of splenocytes was collected carefully without disturbing/mixing the layers. Splenocytes were washed twice with cold 1× PBS followed by total cell counting using Trypan Blue exclusion method and used further for cell based assays.
Splenocytes were cultured in RPMI complete media (RPMI+10% fetal bovine serum+1 mM sodium pyruvate+10,000 units/mL penicillin and 10,000 μg/mL streptomycin) and maintained in a CO2 incubator with 5% CO2 at 37° C.
CFSE is a dye that passively diffuses into cells and binds to intracellular proteins. 1×10^6 cells/mL of harvested splenocytes were treated with 5 μM of CFSE in pre-warmed 1× PBS/0.1% BSA solution for 10 min at 37° C. Excess CFSE was quenched using 5 volumes of ice-cold culture media to the cells and incubated on ice for 5 min. CFSE labelled splenocytes were further given three washes with ice cold complete RPMI media. CFSE labelled 1×10^5 splenocytes added to wells containing either MDA-MB231 cells (1×10^5 cells cultured in high glucose DMEM medium) or recombinant human PDL-1 (100 ng/mL) and test compounds. Splenocytes were stimulated with anti-mouse CD3 and anti-mouse CD28 antibody (1 μg/mL each) and the culture was further incubated for 72 h at 37° C. with 5% CO2. Cells were harvested and washed thrice with ice cold FACS buffer and % proliferation was analysed by flow cytometry with 488 nm excitation and 521 nm emission filters.
Percent splenocyte proliferation was analysed using cell quest FACS program and percent rescue of splenocyte proliferation by compound was estimated after deduction of % background proliferation value and normalising to % stimulated splenocyte proliferation (positive control) as 100%. • Stimulated splenocytes: Splenocytes+anti-CD3/CD28 stimulation • Background proliferation: Splenocytes+anti-CD3/CD28+PD-L1 • Compound proliferation: Splenocytes+anti-CD3/CD28+PD-L1+Compound […]

T1 sequence (Q9EP73 with tags, fused parts or gaps limits assumed): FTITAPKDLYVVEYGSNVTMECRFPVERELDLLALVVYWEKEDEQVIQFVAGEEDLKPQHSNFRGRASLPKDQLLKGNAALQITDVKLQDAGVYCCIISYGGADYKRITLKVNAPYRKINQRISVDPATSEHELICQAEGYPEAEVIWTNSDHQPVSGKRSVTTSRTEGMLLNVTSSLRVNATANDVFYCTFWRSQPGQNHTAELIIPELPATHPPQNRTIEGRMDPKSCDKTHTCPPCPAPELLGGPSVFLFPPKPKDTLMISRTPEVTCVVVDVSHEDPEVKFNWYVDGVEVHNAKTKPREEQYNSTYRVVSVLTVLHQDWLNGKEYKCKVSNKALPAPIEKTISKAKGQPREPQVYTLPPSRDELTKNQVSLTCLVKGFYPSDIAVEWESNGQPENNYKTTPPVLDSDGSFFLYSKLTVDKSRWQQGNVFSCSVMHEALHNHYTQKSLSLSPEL

SMILES | activation at 0.1 µM
N[C@@H](CO)c1nnc([C@H](Cc2c[nH]c3ccccc23)NC(=O)N[C@@H](CC(=O)O)C(=O)O)o1 [Compound 28] | 66%
CC(O)[C@H](NC(=O)N[C@@H](CCCCN)c1nnc([C@@H](N)CO)o1)C(=O)O (stereo partly drawn) [Compound 6] | 30%
N[C@@H](Cc1ccc(O)cc1)c1nnc([C@@H]2CCCN2C(=O)N[C@@H](Cc2ccc(O)cc2)C(=O)O)o1 [Compound 8] | 60%
NC(=O)C[C@H](NC(=O)N[C@@H](Cc1ccccc1)C(=O)O)c1nnc([C@@H](N)CO)o1 [Compound 15] | 23%
CC(O)[C@H](NC(=O)N[C@@H](Cc1ccccc1)c1nnc([C@@H](N)CO)o1)C(=O)O (stereo partly drawn) [Compound 7] | 29%
NCCCC[C@H](N)c1nnc([C@H](CC(N)=O)NC(=O)N[C@@H](CO)C(=O)O)o1 [Compound 11] | 30%
CC(O)[C@H](NC(=O)N[C@@H](CC(N)=O)c1nnc([C@@H](N)CCCCN)o1)C(=O)O (stereo partly drawn) [Compound 4] | 70%
NC(=O)CC[C@H](NC(=O)N[C@@H](CO)c1nnc([C@@H](N)Cc2c[nH]c3ccccc23)o1)C(=O)O [Compound 20] | 74%
CC(O)[C@H](NC(=O)N[C@@H](CC(N)=O)c1nnc([C@@H](N)CC(=O)O)o1)C(=O)O (stereo partly drawn) [Compound 16] | 37%

The next lines start with the values.

activation at 0.1 µM | SMILES
41% | CC(O)[C@H](NC(=O)N[C@@H](CCC(=O)O)c1nnc([C@@H](N)CCCCN)o1)C(=O)O (stereo partly drawn) [Compound 18]
68% | CCC(C)[C@H](N)c1nnc([C@@H](NC(=O)N[C@@H](CCC(=O)O)C(=O)O)C(C)CC)o1 (stereo partly drawn) [Compound 12]
49% | CCC(C)[C@H](NC(=O)N[C@@H](CCC(=O)O)C(=O)O)c1nnc([C@@H](N)CCC(=O)O)o1 (stereo partly drawn) [Compound 2]
29% | NCCCC[C@H](NC(=O)N[C@@H](CC(N)=O)c1nnc([C@@H](N)CO)o1)C(=O)O [Compound 13]
47% | CSC[C@H](N)c1nnc([C@H](CC(N)=O)NC(=O)N[C@H](C(=O)O)C(C)O)o1 (stereo partly drawn) [Compound 24]
16% | CCC(C)[C@H](NC(=O)N[C@H](C(=O)O)C(C)O)c1nnc([C@@H](N)CO)o1 (stereo partly drawn) [Compound 5]
34% | NC(=O)C[C@H](NC(=O)N[C@@H](CC(=O)O)C(=O)O)c1nnc([C@@H](N)CO)o1 [Compound 10]
29% | CC(O)[C@H](NC(=O)N[C@H](c1nnc([C@@H](N)C(C)O)o1)C(C)O)C(=O)O (stereo partly drawn) [Compound 9]
79% | NCCCC[C@H](N)c1nnc([C@H](CC(N)=O)NC(=O)N[C@@H](CCC(=O)O)C(=O)O)o1 [Compound 1]
